This passage reports IC50 and inhibition results from ChEMBL document CHEMBL2331554, “Exploring nature profits: development of novel and potent lipophilic antioxidants based on galloyl-cinnamic hybrids” (Eur J Med Chem, 2013).

Assay [1] relates to Radical scavenging activity. The experiment in a line: Antioxidant activity assessed as inhibition of DPPH radical formation measured every min for 45 mins by spectrophotometric analysis. The class given is functional. For orientation: The DPPH test is a chemical assay of radical scavenging.
A short description of assay [2]: Antioxidant activity assessed as inhibition of ABTS radical formation for 15 mins by spectrophotometric analysis. The class given is functional.

Consider `O=C(O)/C=C/c1cc(O)c(O)c(O)c1`, for which, in assay [1], the IC50 came to 11.8 µM and the inhibition result was “Dose-dependent effect”. Besides, in assay [2], the IC50 came out at 7.2 µM and the inhibition result is “Dose-dependent effect”.

Turning to `CCOC(=O)C(=Cc1ccc(O)c(O)c1)C(=O)OCC`, in assay [1], the IC50 was 21.9 µM and the inhibition result is “Dose-dependent effect”. Moreover, in assay [2], the IC50 came to 21.1 µM and the inhibition result is “Dose-dependent effect”.

As to `CCOC(=O)/C=C/c1cc(O)c(O)c(O)c1`, the IC50 in assay [1] is 15.1 µM; in assay [2], 9 µM. Further, the inhibition entry in assay [1] and in assay [2] was “Dose-dependent effect” throughout.

On to `CCOC(=O)C(=Cc1cc(O)c(O)c(O)c1)C(=O)OCC`, for which, in assay [1], the IC50 was determined as 12.8 µM and the inhibition entry was “Dose-dependent effect”. Besides, in assay [2], the IC50 is 7.7 µM and the inhibition entry was “Dose-dependent effect”.

Regarding `O=C(O)/C=C/c1ccc(O)c(O)c1` [CAFFEIC ACID], in assay [1], the IC50 worked out at 18.1 µM and the inhibition entry was “Dose-dependent effect”. In assay [2], the IC50 came to 17.9 µM and the inhibition entry is “Dose-dependent effect”.

For `CCOC(=O)/C=C/c1ccc(O)c(O)c1` [ETHYL CAFFEATE], in assay [1], the IC50 amounted to 26.6 µM and the inhibition result was “Dose-dependent effect”. In assay [2], the IC50 is 22.6 µM and the inhibition entry was “Dose-dependent effect”.

Take `O=C(O)c1cc(O)c(O)c(O)c1` [GALLIC ACID]: in assay [1], the IC50 worked out at 9.9 µM and the inhibition entry was “Dose-dependent effect”. In assay [2], the IC50 worked out at 7.8 µM and the inhibition result is “Dose-dependent effect”.

As to `Cc1c(C)c2c(c(C)c1O)CCC(C)(C(=O)O)O2` (stereo unspecified) [TROLOX], in assay [1], the IC50 was 30.9 µM and the inhibition entry is “Dose-dependent effect”. Also, in assay [2], the IC50 was determined as 26.3 µM and the inhibition result is “Dose-dependent effect”.

VITAMIN E [listing 1 of 2 here]: the IC50 in assay [1] is 31.1 µM; in assay [2] it was 26.8 µM.

As to VITAMIN E [listing 2 of 2 here], the inhibition entry in assay [1] and in assay [2] was “Dose-dependent effect” each time.

By IC50 is commonly meant the midpoint of a concentration-inhibition curve.
